This is an account of results in US20240336657A1, “G-ALPHA-S PEPTIDE INHIBITORS AND USES THEREOF” (The Regents of the University of California, priority 2021, published 2024).

One experiment addresses Gαs (Homo sapiens, UniProt P63092). As to the kind of experiment: GTPγS binding assay ([35S]GTPγS). Type of experiment: biochemical. More on the design: made in house; host or cells: Escherichia coli BL21(DE3). On the procedure: Gα proteins were diluted to 10 μM with dilution buffer (20 mM HEPES 7.5, 150 mM NaCl, 1 mM MgCl2, 2 mM DTT, and 20 μM GDP) and incubated with 5× stocks of cyclic peptides at room temperature for 2 hours. GTPγS binding was initiated by mixing with the reaction buffer at room temperature (50 nM [35S]GTPγS and 100 μM GTPγS in dilution buffer) at room temperature. At various time points, 10 μL of the sample was removed and mixed with 390 μL of ice-cold wash buffer (20 mM HEPES 7.5, 150 mM NaCl, 20 mM MgCl2). The mixture was filtered through a mixed cellulose membrane (25 mm, 0.22 μm). The membrane was washed by ice-cold wash buffer (500 μL×3), put in a 6-mL plastic vial and air-dried (room temperature 1.5 h). 5 mL of CytoScint-ES Liquid Scintillation Cocktail (MP Biomedicals) was added to each vial. After incubation overnight at room temperature, the vial was used for liquid scintillation counting with a LS 6500 Multi-Purpose Scintillation Counter. A standard curve was generated using [35S]GTPγS. The radioactive activity (Counts per minute) of the samples were converted to the GTPγS concentration. The GTPγS binding curves were fitted by the software GraphPad Prism using the following equation to calculate the apparent GTPγS binding rates (kapp): […]
in which “Y” is the concentration of GTPγS that bound to Gα protein at time “X” (minutes).

For a further experiment, the target named is T1, GDP-bound Gαs (Homo sapiens, UniProt P63092).
T1 construct: hexahistidine (N, cleaved yes); made in house; host or cells: Escherichia coli BL21(DE3)
The experiment can be described thus: Bio-layer interferometry (BLI) binding kinetics. Here is the method: BLI experiments were performed using an OctetRED384 instrument from ForteBio. All experiments were performed at 25° C. using BLI buffer (10 mM HEPES pH 7.4, 150 mM NaCl, 1 mM MgCl2, 0.05% Tween-20, 0.1% DMSO, 0.2 mM GppNHp or GDP). Cyclic peptides were diluted to a series of concentrations in BLI buffer plus 10 μM Biotin. Assays were conducted in Greiner 384well, black, flat bottom polypropylene plates containing the protein solutions, BLI buffer plus 10 μM Biotin for dissociation, and serial dilutions of cyclic peptides to be tested.
Biotinylated proteins were immobilized on Streptavidin biosensors by dipping sensors into plate wells containing protein solutions at a concentration of 100-150 nM. Protein loading is around 2-3 nm. Sensors loaded with proteins were moved and dipped into wells with BLI buffer plus 10 μM Biotin to block unlabeled Streptavidin. Association-dissociation cycles of compounds were started by moving and dipping sensors to cyclic peptides dilutions and BLI buffer plus 10 μM Biotin wells alternatively. Association and dissociation times were carefully determined to ensure full association and dissociation.
Raw kinetic data collected were processed with the Data Analysis software provided by the manufacturer using single reference subtraction in which buffer-only reference was subtracted (For GN13 analysis). Because GD20 analogs have a low level of background binding, we used a double reference subtraction (buffer-only reference and non-protein-loading reference) method to calculate their kinetics values. The resulting data were analyzed based on a 1:1 binding model from which kon and koff values were obtained and then Kd values were calculated.
In general terms: BLI is a label-free optical method that tracks binding on a fibre tip over time.

Another experiment addresses T2, Gαi1/Gβγ (Homo sapiens, UniProt P63096).
T2 construct: expressed in transfected cells; host or cells: HEK293 cells
As to the kind of experiment: BRET2 based Gα Gβγ interaction assay in HEK293 cells (M2R, acetylcholine). The conditions noted are these: pretreated 25 μM, 16 hours, 100 nM acetylcholine. Type of experiment: cell-based. The text has this: We next tested GD20-F10L in HEK 293 cells overexpressing both β2AR and Gαs/Gβγ. Rluc8 was inserted within a flexible loop region between the αB-αC helices of Gαs (FIG. 23J) and GFP2 was inserted at the N-terminus of Gγ2 to capture Gαβγ heterotrimer interaction. A decrease in the bioluminescence resonance energy transfer (BRET2) signal between labeled G protein subunits can detect Gαβγ dissociation (FIG. 21C) in live cells (Olsen et al., 2020). We examined Gαβγ trimer dissociation elicited by the GPCR agonist at various concentrations of cyclic peptides by monitoring the net BRET2 signal. In cells that were transiently transfected with a Gαs-coupled β2-adrenergic receptor (β2AR), GαsShort_Rluc8, […], and Gγ-GFP2, ISO application stimulated a basal net BRET response. […] This effect was GD20-F10L dose dependent (FIGS. 21D-21E). […] To assess the specificity of GD20-F10L at the G protein level, we tested it against the Gαi/Gβγ interaction. […]
8 hours after plating in 96-well assay plates, media was replaced with 100 μL of cyclic peptide dilutions in DMEM with 1% dialyzed FBS. […] Plates were then read in a TECAN Spark 20 M plate reader with 395 nm (RLuc8-coelenterazine 400a) and 510 nm (GFP2) emission filters, at integration times of 1 s per well. Plates were read serially six times, and measurements from the fourth read were used in all analyses. […]
A general note: BRET reads energy transfer from a luciferase to a nearby fluorophore.

Positions of bridges follow the written chain, without caps; N, C: chain ends. Non-standard residues stand in square brackets, D forms with d. Residues, ends and D or L forms follow the SMILES beside them.

T2 sequence (P63096 whole entry): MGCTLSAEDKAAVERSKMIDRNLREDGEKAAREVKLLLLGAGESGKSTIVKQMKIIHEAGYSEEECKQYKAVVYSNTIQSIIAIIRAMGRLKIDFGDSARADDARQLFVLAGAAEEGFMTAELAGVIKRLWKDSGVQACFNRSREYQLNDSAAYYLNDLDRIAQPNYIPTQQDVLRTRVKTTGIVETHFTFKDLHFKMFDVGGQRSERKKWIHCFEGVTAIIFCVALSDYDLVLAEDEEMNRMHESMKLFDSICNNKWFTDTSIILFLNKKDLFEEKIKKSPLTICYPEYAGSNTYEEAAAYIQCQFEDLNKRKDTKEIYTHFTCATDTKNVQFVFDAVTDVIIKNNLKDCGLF
Sequence of Gαs (P63092 1-380 isoform P63092-2): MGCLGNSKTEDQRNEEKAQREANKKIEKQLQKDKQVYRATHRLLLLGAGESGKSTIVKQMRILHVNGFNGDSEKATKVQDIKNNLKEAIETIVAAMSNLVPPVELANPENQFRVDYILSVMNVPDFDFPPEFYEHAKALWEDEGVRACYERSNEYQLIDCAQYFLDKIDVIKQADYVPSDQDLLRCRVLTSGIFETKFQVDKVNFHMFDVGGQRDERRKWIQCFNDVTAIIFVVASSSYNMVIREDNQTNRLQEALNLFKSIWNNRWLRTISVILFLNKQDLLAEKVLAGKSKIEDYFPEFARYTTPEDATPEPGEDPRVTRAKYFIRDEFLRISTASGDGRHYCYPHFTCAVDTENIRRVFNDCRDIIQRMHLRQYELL

Consider `CC[C@H](C)[C@@H]1NC(=O)[C@H](C)NC(=O)[C@H](Cc2ccc(O)cc2)NC(=O)[C@H](C(C)C)NC(=O)[C@H](CO)NC(=O)[C@H](CCC(=O)O)NC(=O)[C@H](Cc2ccccc2)NC(=O)[C@@H](Cc2ccc(O)cc2)NC(=O)CSC[C@@H](C(=O)NCC(N)=O)NC(=O)[C@H](CC(C)C)NC(=O)[C@H]([C@@H](C)O)NC(=O)CNC(=O)[C@H](Cc2c[nH]c3ccccc23)NC1=O` [GN13] ({CH2CO}-[dY]FESVYAIWGTLCG-NH2; thioether N-13), for which the “effect on the apparent rate of GTPγS binding (kapp) to Gαs” value on Gαs is reported as “increased”. For the same compound, the “binding to GDP-bound Gαs” value on GDP-bound Gαs (highest concentration tested) is recorded as “no detectable binding”.

On GDP-bound Gαs (GDP/Gαs), `CC[C@H](C)[C@@H]1NC(=O)[C@H](CC(C)C)NC(=O)[C@@H](Cc2ccc(O)cc2)NC(=O)CSC[C@@H](C(=O)NCC(N)=O)NC(=O)[C@@H]2CCCN2C(=O)[C@H](CC(C)C)NC(=O)[C@H](CC(N)=O)NC(=O)[C@H](CC(C)C)NC(=O)[C@H](C)NC(=O)[C@H](Cc2c[nH]c3ccccc23)NC(=O)[C@H](CCC(N)=O)NC(=O)[C@H](CCCNC(=N)N)NC(=O)[C@H](Cc2ccccc2)NC(=O)[C@H]([C@@H](C)O)NC1=O` [GD20-F10L] ({CH2CO}-[dY]LITFRQWALNLPCG-NH2; thioether N-14) showed a Kd of 14.5 ± 0.4 nM, an off-rate (koff) of 0.00358 s⁻¹ and a kon of 247000 M⁻¹ s⁻¹. Also, the “net BRET2 signal change between Gαi and Gβγ after acetylcholine” value on Gαi1/Gβγ was “did not induce a net BRET2 signal change”.

Broadly, the Kd is a measure of binding affinity in units of concentration. High values mean weaker binding, low ones tighter binding. In general, koff refers to a measure of how fast the partners let go of each other. The term kon denotes the rate constant with which the complex forms.
